Test results as given in PMC9863607, “Combined Use of Antimicrobial Peptides with Antiseptics against Multidrug-Resistant Bacteria: Pros and Cons” (Pharmaceutics, 2023).
≈ marks a conversion by molar mass, not a printed value. Where two headings read alike, the source gives them in different places. Peptide text beside a SMILES is read from it.

Columns and labels:
[1] = system: P. aeruginosa MDR 522/17; assay: Crystal violet assay of biofilm formation; format: cell-based, Pseudomonas aeruginosa; conditions: median of 3 independent experiments; for Minimal FECI, AMP + CAPB, biofilm formation: combination with cocamidopropyl betaine; for Minimal FECI, AMP + CAPB, biofilm formation / Minimal FECI, AMP + DXD, biofilm formation / Minimal FECI, AMP + ETA, biofilm formation / Minimal FECI, AMP + PVG, biofilm formation / Minimal FECI, AMP + PTS, biofilm formation: sub-microbicidal concentrations; for Minimal FECI, AMP + DXD, biofilm formation: combination with dioxydin; for Minimal FECI, AMP + ETA, biofilm formation: combination with etidronic acid; for Minimal FECI, AMP + PVG, biofilm formation: combination with poviargolum; for Minimal FECI, AMP + PTS, biofilm formation: combination with prontosan; for MECBF partially inhibiting bacterial biofilms: minimal concentration with significant decrease vs intact control (Mann–Whitney, p < 0.05), 24 h, 37 °C, MHB
Procedure: The impact of the tested antimicrobials and their combinations on the formation of biofilms was quantitated as per the crystal violet assay protocol published by Merritt et al.. Testing was performed in 96-well immunological plates with U-shaped bottoms. […] Experimental samples were quadruplicated, and control without antimicrobials was octuplicated.
Then, the liquid content of the test plates was discarded, and the plates were gently washed in still water from residual traces of unattached planktonic bacteria. Each well was supplied with 125 μL 0.1% aqueous solution of crystal violet dye for 10 min at room temperature to stain biofilm components left attached to the surface. After staining, the plates were washed with clear water once more to remove excessive dye and left to air-dry. To quantify the amount of the bound dye corresponding to the thickness of the formed biofilm, it was redissolved in 30% acetic acid, 200 μL of which was introduced into each well. After 15 min at room temperature, the content of the wells was mixed by repetitive pipetting to ensure complete dye extraction, and 125 μL of each sample was transferred well-by-well into 96-well clear flat-bottom plates for spectrophotometric examination. OD was measured at 580 nm. Final results were calculated as medians based on three independent experiments.
Analyzing the combined action of AMPs and antiseptics (AS) in sub-microbicidal concentrations toward biofilms, we adopted the same approach based on the calculation of fractional indices as the one we used while testing antimicrobial activity on planktonic bacteria. For combinations, the series of concentrations from [MECBF(AMP) + MECBF(AS)], [½MECBF(AMP) + ½MECBF(AS)] and down to [1/32 × MECBF(AMP) + 1/32 × MECBF(AS)] was analyzed. […] The minimal FECI > 4 was interpreted as antagonism, FECI ≤ 0.5 as synergy, 0.5 < FECI ≤ 1 as additivity, and 1 < FECI ≤ 4 as independent action.

[2] = system: E. coli ML-35p; assay: Fluorometric resazurin assay of bacterial metabolic activity; format: cell-based, Escherichia coli; conditions: ¼ MIC AMP + ¼ MIC poviargolum; became comparable to ½ MIC of the peptide
Procedure: The decline in metabolic activity of bacterial cells faced against test substances or their combinations was tracked using resazurin dye, also known as alamarBlue. […] Thus, resazurin-to-resorufin conversion was primarily associated with energy metabolism impairment.
The experimental procedure was basically the same as for permeability testing except for the substitution of the markers by 120 μM resazurin and the addition of 0.1% MHB to provide bacteria with a metabolic substrate. An additional control without both antimicrobials and bacterial cells was included to imitate the zero metabolic activity level. Though resazurin-to-resorufin transformation can be observed via either spectrometry or fluorimetry, the latter was preferred as a more sensitive method. Experiments were conducted in 96-well white opaque plates. Temperature and shaking parameters were left unchanged. Fluorescence intensity was measured at 590 nm with excitation at 560 nm. Data were collected every 3 min for 4–6 h using a Gemini EM plate spectrofluorimeter (Molecular Devices, San Jose, CA, USA).

[3] = system: E. coli ML-35p; assay: Broth microdilution assay (MIC, planktonic bacteria); format: cell-based, Escherichia coli; conditions: antiseptics and surfactants, MHB, overnight 37 °C, median of 3–4 independent experiments, prontosan as polyhexanide
Procedure: In this regard the test plates were preincubated for 1 h at 37 °C with 0.1% bovine serum albumin (BSA) in distilled water before use. Bacteria were grown overnight at 37 °C with shaking in 2.1% Müller–Hinton broth (MHB), and then a small aliquot was transferred into the fresh portion of the same medium for another 2–3 h on the day of the experiment to provide us with the log phase bacterial suspension. Concentration of bacterial cells in suspension was evaluated based on absorbance at 620 nm and diluted down to 1 × 10^6 CFU/mL with MHB. Equal volumes of the prepared bacterial suspension in MHB and two-fold serial dilutions of the antimicrobials in 10 mM sodium phosphate (Na-P) buffer (pH 7.4) with 0.1% BSA were mixed and incubated overnight at 37 °C. The lowest concentration where no bacterial growth was observed the next day under visual examination was considered the minimal inhibitory concentration. The test was repeated at least three times, and the final MIC value was established as a median result. Each experiment was conducted in triplicates. Terasaki microplates (10 µL end volume, V-shaped bottom; Sarstedt, Nümbrecht, Germany) were used.

Molecule | Minimal FECI, AMP + CAPB, biofilm formation [1] | Minimal FECI, AMP + DXD, biofilm formation [1] | Minimal FECI, AMP + ETA, biofilm formation [1] | Minimal FECI, AMP + PVG, biofilm formation [1] | Minimal FECI, AMP + PTS, biofilm formation [1] | MECBF partially inhibiting bacterial biofilms [1] | Effect of poviargolum on development of the AMP's suppression of bacterial metabolic activity [2] | MIC ([3]; Escherichia coli, ML35P, read-out: MIC) [mg/mL] | MIC [3]
CC[C@H](C)[C@H](NC(=O)[C@H](CCCNC(=N)N)NC(=O)[C@@H](NC(=O)[C@@H]1CCCN1C(=O)[C@@H]1CCCN1C(=O)[C@H](CCCNC(=N)N)NC(=O)[C@H](CCCNC(=N)N)NC(=O)[C@H](Cc1ccccc1)NC(=O)[C@@H]1CCCN1C(=O)[C@H](CC(C)C)NC(=O)[C@H](CCCNC(=N)N)NC(=O)[C@H](Cc1ccccc1)NC(=O)[C@@H](N)CCCNC(=N)N)[C@@H](C)CC)C(=O)N[C@@H](Cc1c[nH]cn1)C(=O)N1CCC[C@H]1C(=O)N1CCC[C@H]1C(=O)N1CCC[C@H]1C(=O)N[C@@H](Cc1ccccc1)C(=O)N[C@@H](Cc1ccc(O)cc1)C(=O)N1CCC[C@H]1C(=O)N1CCC[C@H]1C(=O)N[C@@H](Cc1ccccc1)C(=O)N[C@@H](CCCNC(=N)N)C(=O)N[C@@H](CCCNC(=N)N)C(=O)N[C@@H](Cc1ccccc1)C(=O)N[C@@H](CC(C)C)C(=O)O [ChBac3.4] (H-RFRLPFRRPPIRIHPPPFYPPFRRFL-OH; N-terminus assumed) | 0.5 | 1.12 | 2 | 1 | 0.12 | 1/64 | significantly accelerated |  | 
[O-][n+]1c(CO)c(CO)[n+]([O-])c2ccccc21 [Dioxydin] |  |  |  |  |  | 1/16 |  |  | 
CC(O)(P(=O)(O)O)P(=O)(O)O [Etidronic acid] |  |  |  |  |  | 1/32 |  | 50 (≈ 243 mM) | 
CC(C)C[C@H](NC(=O)[C@H](CCCNC(=N)N)NC(=O)CNC(=O)CNC(=O)[C@@H](N)CCCNC(=N)N)C(=O)N[C@H]1CSSC[C@@H](C(=O)N[C@H](C(=O)NCC(=O)N[C@@H](CCCNC(=N)N)C(N)=O)C(C)C)NC(=O)[C@H](C(C)C)NC(=O)[C@@H]2CSSC[C@H](NC(=O)[C@H](Cc3ccc(O)cc3)NC1=O)C(=O)N[C@@H](CCCNC(=N)N)C(=O)N[C@@H](CCCNC(=N)N)C(=O)N[C@@H](CCCNC(=N)N)C(=O)N[C@@H](Cc1ccccc1)C(=O)N2 [PG-1, protegrin 1] | 0.12 | 1 | 2 | 0.25 | 0.12 | 1/64 | significantly accelerated |  | 
Cocamidopropyl betaine |  |  |  |  |  | 1/512 |  |  | >50,000 µg/mL
